Laboratory results published in ChEMBL document CHEMBL1201862, “PubChem BioAssay data set” (2004).
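Following 48 hours of exposure in 96-well plates, responses at five concentrations were used to interpolate endpoints linearly. GI50 marks 50% less growth.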 Active and inactive are the calls of the source. Rule as the data show it: active = GI50 up to about 1.1 µM and inactive = higher. Peptide text beside a SMILES is read from it.

What was measured:
Assay in all cases: inhibition of tumour cell growth, NCI panel, 48 h
RXF 393 = tested on: RXF 393
MDA-MB-231 = tested on: MDA-MB-231
NCI-H226 = tested on: NCI-H226
OVCAR-4 = tested on: OVCAR-4
A498 = tested on: A498
BT-549 = tested on: BT-549
SF-268 = tested on: SF-268
NCI-H460 = tested on: NCI-H460
OVCAR-8 = tested on: OVCAR-8
SW-620 = tested on: SW-620
Hs-578T = tested on: Hs-578T
SK-MEL-5 = tested on: SK-MEL-5
MDA-MB-435 = tested on: MDA-MB-435
Malme-3M = tested on: Malme-3M
IGROV-1 = tested on: IGROV-1
PC-3 = tested on: PC-3
HL-60 = tested on: HL-60
SK-MEL-2 = tested on: SK-MEL-2
HCC 2998 = tested on: HCC 2998
SNB-19 = tested on: SNB-19

Measured: GI50

Nc1ncc(CN2CCOCC2)c(-c2ccccc2O)n1
inactive: RXF 393 > 100 µM | MDA-MB-231 > 100 µM | NCI-H226 > 100 µM | OVCAR-4 > 100 µM | A498 > 100 µM | BT-549 > 100 µM | SF-268 > 100 µM | NCI-H460 > 100 µM | OVCAR-8 > 100 µM | SW-620 > 100 µM | Hs-578T > 100 µM | SK-MEL-5 > 100 µM | MDA-MB-435 > 100 µM | Malme-3M > 100 µM | IGROV-1 > 100 µM | PC-3 > 100 µM | HL-60 > 100 µM | SK-MEL-2 > 100 µM

COc1cc2nc3n(c(=O)c2cc1OC)-c1ccc([N+](=O)[O-])cc1C3=O
inactive: RXF 393 20.3 µM | HCC 2998 > 100 µM | MDA-MB-231 46 µM | NCI-H226 26.1 µM | OVCAR-4 15 µM | SNB-19 > 100 µM | A498 17.5 µM | BT-549 > 100 µM | SF-268 > 100 µM | NCI-H460 68.4 µM | OVCAR-8 57.9 µM | SW-620 11.3 µM | Hs-578T > 100 µM | SK-MEL-5 50.8 µM | MDA-MB-435 19.4 µM | Malme-3M 34.5 µM | IGROV-1 26.1 µM | PC-3 41.5 µM | SK-MEL-2 > 100 µM

CC(=O)Oc1cc2c(c3ncccc13)OC(C)(C)C2
inactive: RXF 393 12.4 µM | HCC 2998 15.5 µM | MDA-MB-231 10.1 µM | NCI-H226 16.3 µM | OVCAR-4 12.1 µM | A498 16.9 µM | BT-549 > 100 µM | SF-268 10.8 µM | NCI-H460 8.71 µM | OVCAR-8 14.2 µM | SW-620 13.3 µM | Hs-578T 5.12 µM | SK-MEL-5 12.5 µM | MDA-MB-435 3.33 µM | Malme-3M 11 µM | IGROV-1 2.29 µM | PC-3 20.7 µM | SK-MEL-2 17.6 µM

CN(C)CCCN1C(=S)N(CCCN(C)C)c2c3ccccc3nc3c([N+](=O)[O-])ccc1c23
inactive: RXF 393 5.08 µM | HCC 2998 4.21 µM | MDA-MB-231 10.4 µM | NCI-H226 8.02 µM | OVCAR-4 11.5 µM | SNB-19 8.67 µM | A498 7.71 µM | BT-549 14.7 µM | SF-268 4.21 µM | NCI-H460 3.46 µM | OVCAR-8 5.31 µM | SW-620 3.05 µM | Hs-578T 6.27 µM | SK-MEL-5 4.55 µM | MDA-MB-435 5.47 µM | Malme-3M 1.75 µM | IGROV-1 3.06 µM | PC-3 5.83 µM | SK-MEL-2 12.5 µM

S=C1c2ccc(Cl)cc2-n2cnnc2C2CSCN12 (configuration not stated)
inactive: RXF 393 > 100 µM | HCC 2998 > 100 µM | MDA-MB-231 > 100 µM | NCI-H226 > 100 µM | OVCAR-4 > 100 µM | SNB-19 > 100 µM | A498 > 100 µM | BT-549 > 100 µM | SF-268 > 100 µM | NCI-H460 > 100 µM | OVCAR-8 > 100 µM | SW-620 > 100 µM | Hs-578T > 100 µM | SK-MEL-5 > 100 µM | MDA-MB-435 95.1 µM | Malme-3M > 100 µM | IGROV-1 > 100 µM | PC-3 > 100 µM | SK-MEL-2 > 100 µM

Cc1nn(C(=O)Cc2ccccc2)c2c1C(c1ccc(Cl)cc1)SC(=N)N2 (configuration not stated)
inactive: HCC 2998 > 100 µM | MDA-MB-231 > 100 µM | A498 > 100 µM | BT-549 > 100 µM | SF-268 > 100 µM | NCI-H460 > 100 µM | OVCAR-8 > 100 µM | SW-620 > 100 µM | Hs-578T > 100 µM | SK-MEL-5 > 100 µM | MDA-MB-435 > 100 µM | Malme-3M > 100 µM | IGROV-1 > 100 µM | PC-3 > 100 µM | HL-60 > 100 µM

CCCOc1ccc2sc(NC(=O)c3cc([N+](=O)[O-])cc([N+](=O)[O-])c3)nc2c1
inactive: RXF 393 48.4 µM | MDA-MB-231 35 µM | NCI-H226 27.9 µM | OVCAR-4 18.8 µM | SNB-19 42.5 µM | A498 23.7 µM | BT-549 47.8 µM | SF-268 43.8 µM | NCI-H460 50.4 µM | OVCAR-8 31.3 µM | SW-620 31 µM | Hs-578T 13.7 µM | SK-MEL-5 17 µM | MDA-MB-435 36.7 µM | Malme-3M 25.4 µM | IGROV-1 10.6 µM | PC-3 28.4 µM | HL-60 67.3 µM | SK-MEL-2 50.2 µM

COc1ccc(-c2cc(-c3ccco3)c(C#N)c(=S)n2C2OC(CO)C(O)C(O)C2O)cc1 (configuration not stated)
inactive: RXF 393 > 100 µM | HCC 2998 25 µM | MDA-MB-231 36.2 µM | NCI-H226 > 100 µM | OVCAR-4 > 100 µM | SNB-19 > 100 µM | A498 > 100 µM | BT-549 > 100 µM | SF-268 > 100 µM | NCI-H460 > 100 µM | OVCAR-8 > 100 µM | SW-620 > 100 µM | Hs-578T > 100 µM | SK-MEL-5 44.7 µM | MDA-MB-435 > 100 µM | Malme-3M > 100 µM | IGROV-1 92.3 µM | PC-3 > 100 µM | SK-MEL-2 > 100 µM

O=C1CCCCC/C1=C\c1ccc(Cl)cc1
inactive: HCC 2998 26.2 µM | MDA-MB-231 73.6 µM | NCI-H226 81.1 µM | OVCAR-4 26.7 µM | SNB-19 55.1 µM | A498 33 µM | BT-549 31.2 µM | SF-268 14.5 µM | NCI-H460 35.2 µM | SW-620 24.7 µM | Hs-578T 20.8 µM | SK-MEL-5 13.9 µM | MDA-MB-435 20.6 µM | Malme-3M 52.6 µM | IGROV-1 67.6 µM | PC-3 19.9 µM | SK-MEL-2 34.8 µM

CCC(C)C(NC(=O)C(NC(=O)C(CC(N)=O)NC(=O)CN)C(C)O)C(=O)NC(C(=O)NC(C)C(=O)NC(C(=O)NC(CCC(=O)O)C(=O)NC(CC(C)C)C(=O)NC(CC(=O)O)C(=O)NC(C(=O)NC(Cc1ccc(O)cc1)C(=O)N1CCCC1C(=O)O)C(C)O)C(C)C)C(C)C (configuration not stated) (H-GNTIVAVELDTYP-OH; configuration not given here)
inactive: RXF 393 > 50 µM | HCC 2998 > 50 µM | MDA-MB-231 18.9 µM | NCI-H226 > 50 µM | OVCAR-4 > 50 µM | SNB-19 > 50 µM | BT-549 > 50 µM | SF-268 > 50 µM | NCI-H460 > 50 µM | OVCAR-8 > 50 µM | SW-620 > 50 µM | Hs-578T > 50 µM | SK-MEL-5 > 50 µM | MDA-MB-435 > 50 µM | Malme-3M > 50 µM | IGROV-1 > 50 µM | PC-3 > 50 µM | HL-60 > 50 µM | SK-MEL-2 > 50 µM
